Test results reported in ChEMBL document CHEMBL5723584 (2023).

What was measured:
[1] = target: PAS domain-containing serine/threonine-protein kinase (Homo sapiens) (UniProt Q96RG2); assay: activity of PASK(h) at 1.0 µM in the Eurofins Kinase panel; conditions: Compound concentration 1.0 uM
[2] = target: Serine/threonine-protein kinase 35 (Homo sapiens) (UniProt Q8TDR2); assay: activity of CLIK1(h) at 1.0 µM in the Eurofins Kinase panel; conditions: Compound concentration 1.0 uM
[3] = target: Cyclin-dependent kinase 2/cyclin E (Homo sapiens) (UniProt P24864+P24941+O96020); assay: activity of CDK2/cyclinE(h) at 1.0 µM in the Eurofins Kinase panel; format: protein-complex assay; conditions: Compound concentration 1.0 uM
[4] = target: Tyrosine-protein kinase Lck (Homo sapiens) (UniProt P06239); assay: activity of Lck(h) activated at 1.0 µM in the Eurofins Kinase panel; conditions: Compound concentration 1.0 uM
[5] = target: Casein kinase I isoform epsilon (Homo sapiens) (UniProt P49674); assay: activity of CK1epsilon(h) at 1.0 µM in the Eurofins Kinase panel; conditions: Compound concentration 1.0 uM
[6] = target: Mitogen-activated protein kinase kinase kinase 5 (Homo sapiens) (UniProt Q99683); assay: activity of ASK1(h) at 1.0 µM in the Eurofins Kinase panel; conditions: Compound concentration 1.0 uM
[7] = target: Mitogen-activated protein kinase 10 (Homo sapiens) (UniProt P53779); assay: activity of JNK3(h) at 1.0 µM in the Eurofins Kinase panel; conditions: Compound concentration 1.0 uM
[8] = target: Macrophage colony-stimulating factor 1 receptor (Homo sapiens) (UniProt P07333); assay: activity of Fms(h) at 1.0 µM in the Eurofins Kinase panel; conditions: Compound concentration 1.0 uM
[9] = target: Tyrosine-protein kinase HCK (Homo sapiens) (UniProt P08631); assay: activity of Hck(h) at 1.0 µM in the Eurofins Kinase panel; conditions: Compound concentration 1.0 uM
[10] = target: Serine/threonine-protein kinase MARK1 (Homo sapiens) (UniProt Q9P0L2); assay: activity of MARK1(h) at 1.0 µM in the Eurofins Kinase panel; conditions: Compound concentration 1.0 uM
[11] = target: Mitogen-activated protein kinase kinase kinase kinase 2 (Homo sapiens) (UniProt Q12851); assay: activity of GCK(h) at 1.0 µM in the Eurofins Kinase panel; conditions: Compound concentration 1.0 uM
[12] = target: BMP-2-inducible protein kinase (Homo sapiens, UniProt Q9NSY1); assay: Promega NanoBRET (BMP2K)
[13] = target: MAP kinase-interacting serine/threonine-protein kinase 2 (Homo sapiens, UniProt Q9HBH9); assay: Promega NanoBRET (MKNK2)
[14] = target: Calcium/calmodulin-dependent protein kinase kinase 2 (Homo sapiens) (UniProt Q96RR4); assay: activity of CaMKK2(h) at 1.0 µM in the Eurofins Kinase panel; conditions: Compound concentration 1.0 uM
[15] = target: Calcium/calmodulin-dependent protein kinase type II subunit delta (Homo sapiens) (UniProt Q13557); assay: activity of CaMKIIdelta(h) at 1.0 µM in the Eurofins Kinase panel; conditions: Compound concentration 1.0 uM
[16] = target: Serine/threonine-protein kinase Nek7 (Homo sapiens) (UniProt Q8TDX7); assay: activity of NEK7(h) at 1.0 µM in the Eurofins Kinase panel; conditions: Compound concentration 1.0 uM
[17] = target: Serine/threonine-protein kinase 25 (Homo sapiens) (UniProt O00506); assay: activity of STK25(h) at 1.0 µM in the Eurofins Kinase panel; conditions: Compound concentration 1.0 uM
[18] = target: [Pyruvate dehydrogenase (acetyl-transferring)] kinase isozyme 4, mitochondrial (Homo sapiens) (UniProt Q16654); assay: activity of PDHK4(h) at 1.0 µM in the Eurofins Kinase panel; conditions: Compound concentration 1.0 uM
[19] = target: Phosphatidylinositol 4-phosphate 5-kinase type-1 gamma (Homo sapiens) (UniProt O60331); assay: activity of PIP5K1gamma(h) at 1.0 µM in the Eurofins Kinase panel; conditions: Compound concentration 1.0 uM
[20] = target: Ribosomal protein S6 kinase alpha-2 (Homo sapiens) (UniProt Q15349); assay: activity of Rsk3(h) at 1.0 µM in the Eurofins Kinase panel; conditions: Compound concentration 1.0 uM
[21] = target: Serine/threonine-protein kinase MARK2 (Homo sapiens) (UniProt Q7KZI7); assay: activity of PAR-1Balpha(h) at 1.0 µM in the Eurofins Kinase panel; conditions: Compound concentration 1.0 uM
[22] = target: Tyrosine-protein kinase Fgr (Homo sapiens) (UniProt P09769); assay: activity of Fgr(h) at 1.0 µM in the Eurofins Kinase panel; conditions: Compound concentration 1.0 uM
[23] = target: MAP/microtubule affinity-regulating kinase 3 (Homo sapiens) (UniProt P27448); assay: activity of MARK3(h) at 1.0 µM in the Eurofins Kinase panel; conditions: Compound concentration 1.0 uM
[24] = target: Activin receptor type-1-like (Homo sapiens) (UniProt P37023); assay: activity of ALK1(h) at 1.0 µM in the Eurofins Kinase panel; conditions: Compound concentration 1.0 uM
[25] = target: Ephrin type-B receptor 1 (Homo sapiens) (UniProt P54762); assay: activity of EphB1(h) at 1.0 µM in the Eurofins Kinase panel; conditions: Compound concentration 1.0 uM
[26] = target: Ephrin type-A receptor 2 (Homo sapiens) (UniProt P29317); assay: activity of EphA2(h) at 1.0 µM in the Eurofins Kinase panel; conditions: Compound concentration 1.0 uM
[27] = target: Mitogen-activated protein kinase kinase kinase 2 (Homo sapiens) (UniProt Q9Y2U5); assay: activity of MEKK2(h) at 1.0 µM in the Eurofins Kinase panel; conditions: Compound concentration 1.0 uM
[28] = target: Receptor-interacting serine/threonine-protein kinase 1 (Homo sapiens) (UniProt Q13546); assay: activity of RIPK1(h) at 1.0 µM in the Eurofins Kinase panel; conditions: Compound concentration 1.0 uM
[29] = target: Tyrosine-protein kinase Srms (Homo sapiens) (UniProt Q9H3Y6); assay: activity of SRMS(h) at 1.0 µM in the Eurofins Kinase panel; conditions: Compound concentration 1.0 uM
[30] = target: Serine/threonine-protein kinase 3 (Homo sapiens) (UniProt Q13188); assay: activity of MST2(h) at 1.0 µM in the Eurofins Kinase panel; conditions: Compound concentration 1.0 uM
[31] = target: Cyclin-dependent kinase 5/CDK5 activator 1 (Homo sapiens) (UniProt Q00535+Q15078); assay: activity of CDK5/p25(h) at 1.0 µM in the Eurofins Kinase panel; format: protein-complex assay; conditions: Compound concentration 1.0 uM
[32] = target: Ephrin type-A receptor 1 (Homo sapiens) (UniProt P21709); assay: activity of EphA1(h) at 1.0 µM in the Eurofins Kinase panel; conditions: Compound concentration 1.0 uM
[33] = target: Interleukin-1 receptor-associated kinase 4 (Homo sapiens) (UniProt Q9NWZ3); assay: activity of IRAK4(h) at 1.0 µM in the Eurofins Kinase panel; conditions: Compound concentration 1.0 uM
[34] = target: Serine/threonine-protein kinase MRCK beta (Homo sapiens) (UniProt Q9Y5S2); assay: activity of MRCKbeta(h) at 1.0 µM in the Eurofins Kinase panel; conditions: Compound concentration 1.0 uM
[35] = target: Death-associated protein kinase 1 (Homo sapiens) (UniProt P53355); assay: activity of DAPK1(h) at 1.0 µM in the Eurofins Kinase panel; conditions: Compound concentration 1.0 uM
[36] = target: Bone morphogenetic protein receptor type-1B (Homo sapiens) (UniProt O00238); assay: activity of ALK6(h) at 1.0 µM in the Eurofins Kinase panel; conditions: Compound concentration 1.0 uM
[37] = target: PI3-kinase p110-alpha/p85-alpha (Homo sapiens) (UniProt P27986+P42336); assay: activity of PI3 Kinase (p110alpha/p85alpha)(h) at 1.0 µM in the Eurofins Kinase panel; format: protein-complex assay; conditions: Compound concentration 1.0 uM
[38] = target: cGMP-dependent protein kinase 1 (Homo sapiens) (UniProt Q13976); assay: activity of PKG1alpha(h) at 1.0 µM in the Eurofins Kinase panel; conditions: Compound concentration 1.0 uM

Sequence of Serine/threonine-protein kinase 25 (Homo sapiens) (O00506 whole entry, looked up): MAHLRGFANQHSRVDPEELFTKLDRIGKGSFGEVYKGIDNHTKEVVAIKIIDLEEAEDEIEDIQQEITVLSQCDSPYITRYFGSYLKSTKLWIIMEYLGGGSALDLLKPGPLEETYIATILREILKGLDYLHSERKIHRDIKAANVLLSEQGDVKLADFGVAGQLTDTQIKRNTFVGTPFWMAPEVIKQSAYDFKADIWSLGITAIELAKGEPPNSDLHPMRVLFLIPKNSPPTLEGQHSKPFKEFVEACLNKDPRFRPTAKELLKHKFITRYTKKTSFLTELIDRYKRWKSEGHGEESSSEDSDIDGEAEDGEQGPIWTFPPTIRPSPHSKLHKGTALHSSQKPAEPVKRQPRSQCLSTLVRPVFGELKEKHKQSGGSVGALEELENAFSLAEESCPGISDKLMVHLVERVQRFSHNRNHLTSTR
Sequence of Cyclin-dependent kinase 5/CDK5 activator 1 (Homo sapiens) (Q00535 whole entry): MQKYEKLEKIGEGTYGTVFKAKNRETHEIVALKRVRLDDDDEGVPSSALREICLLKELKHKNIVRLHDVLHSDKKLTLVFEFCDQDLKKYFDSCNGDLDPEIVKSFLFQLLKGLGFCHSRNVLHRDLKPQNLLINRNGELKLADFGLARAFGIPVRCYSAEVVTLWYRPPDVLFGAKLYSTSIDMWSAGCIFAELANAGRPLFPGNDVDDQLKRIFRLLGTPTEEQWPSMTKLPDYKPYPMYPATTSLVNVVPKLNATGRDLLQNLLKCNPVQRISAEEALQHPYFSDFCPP
Sequence of Cyclin-dependent kinase 5/CDK5 activator 1 (Homo sapiens) (Q15078 99-307 partner limits assumed): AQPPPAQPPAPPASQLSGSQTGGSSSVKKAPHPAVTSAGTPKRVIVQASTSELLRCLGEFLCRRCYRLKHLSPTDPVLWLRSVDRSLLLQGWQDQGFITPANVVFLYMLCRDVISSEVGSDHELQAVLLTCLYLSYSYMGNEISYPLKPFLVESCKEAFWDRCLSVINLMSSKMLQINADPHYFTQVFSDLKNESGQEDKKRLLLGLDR
Sequence of Death-associated protein kinase 1 (Homo sapiens) (P53355 whole entry, looked up): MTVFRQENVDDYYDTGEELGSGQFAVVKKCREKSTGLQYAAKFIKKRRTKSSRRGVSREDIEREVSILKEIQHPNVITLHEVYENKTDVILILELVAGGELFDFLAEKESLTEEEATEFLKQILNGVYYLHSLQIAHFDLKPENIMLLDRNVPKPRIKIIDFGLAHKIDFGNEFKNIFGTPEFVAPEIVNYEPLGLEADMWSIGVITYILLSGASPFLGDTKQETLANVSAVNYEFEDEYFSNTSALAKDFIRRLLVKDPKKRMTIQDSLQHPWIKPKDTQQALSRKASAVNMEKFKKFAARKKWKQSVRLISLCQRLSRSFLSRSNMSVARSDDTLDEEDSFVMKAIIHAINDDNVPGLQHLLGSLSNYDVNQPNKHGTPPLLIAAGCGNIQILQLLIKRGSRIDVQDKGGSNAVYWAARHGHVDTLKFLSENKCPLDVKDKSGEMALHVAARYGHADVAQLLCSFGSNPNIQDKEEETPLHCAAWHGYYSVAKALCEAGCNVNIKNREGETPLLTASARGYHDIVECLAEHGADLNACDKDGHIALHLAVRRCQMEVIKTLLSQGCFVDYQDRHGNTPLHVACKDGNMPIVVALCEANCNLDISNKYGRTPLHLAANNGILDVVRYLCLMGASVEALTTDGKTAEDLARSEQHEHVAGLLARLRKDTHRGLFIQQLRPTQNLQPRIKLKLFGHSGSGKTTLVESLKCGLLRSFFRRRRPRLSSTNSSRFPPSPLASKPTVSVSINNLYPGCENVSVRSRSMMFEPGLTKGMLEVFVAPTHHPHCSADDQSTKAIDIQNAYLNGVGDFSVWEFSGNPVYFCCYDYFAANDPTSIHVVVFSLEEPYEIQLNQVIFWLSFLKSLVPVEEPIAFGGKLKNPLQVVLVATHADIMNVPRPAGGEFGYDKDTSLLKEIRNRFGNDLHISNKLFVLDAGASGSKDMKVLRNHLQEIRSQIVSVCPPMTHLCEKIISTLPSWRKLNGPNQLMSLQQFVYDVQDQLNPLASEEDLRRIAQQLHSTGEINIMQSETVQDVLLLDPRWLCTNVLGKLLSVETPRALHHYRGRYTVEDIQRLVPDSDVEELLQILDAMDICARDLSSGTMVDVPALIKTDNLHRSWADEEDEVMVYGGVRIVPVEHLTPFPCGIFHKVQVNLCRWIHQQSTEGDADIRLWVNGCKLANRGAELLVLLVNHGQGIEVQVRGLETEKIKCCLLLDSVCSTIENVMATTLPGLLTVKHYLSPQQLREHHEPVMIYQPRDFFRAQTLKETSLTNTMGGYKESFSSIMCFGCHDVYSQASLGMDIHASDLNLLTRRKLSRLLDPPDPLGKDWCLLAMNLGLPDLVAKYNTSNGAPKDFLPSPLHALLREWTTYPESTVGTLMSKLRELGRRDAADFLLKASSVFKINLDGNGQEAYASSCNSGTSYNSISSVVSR
Sequence of Serine/threonine-protein kinase MARK2 (Homo sapiens) (Q7KZI7 whole entry): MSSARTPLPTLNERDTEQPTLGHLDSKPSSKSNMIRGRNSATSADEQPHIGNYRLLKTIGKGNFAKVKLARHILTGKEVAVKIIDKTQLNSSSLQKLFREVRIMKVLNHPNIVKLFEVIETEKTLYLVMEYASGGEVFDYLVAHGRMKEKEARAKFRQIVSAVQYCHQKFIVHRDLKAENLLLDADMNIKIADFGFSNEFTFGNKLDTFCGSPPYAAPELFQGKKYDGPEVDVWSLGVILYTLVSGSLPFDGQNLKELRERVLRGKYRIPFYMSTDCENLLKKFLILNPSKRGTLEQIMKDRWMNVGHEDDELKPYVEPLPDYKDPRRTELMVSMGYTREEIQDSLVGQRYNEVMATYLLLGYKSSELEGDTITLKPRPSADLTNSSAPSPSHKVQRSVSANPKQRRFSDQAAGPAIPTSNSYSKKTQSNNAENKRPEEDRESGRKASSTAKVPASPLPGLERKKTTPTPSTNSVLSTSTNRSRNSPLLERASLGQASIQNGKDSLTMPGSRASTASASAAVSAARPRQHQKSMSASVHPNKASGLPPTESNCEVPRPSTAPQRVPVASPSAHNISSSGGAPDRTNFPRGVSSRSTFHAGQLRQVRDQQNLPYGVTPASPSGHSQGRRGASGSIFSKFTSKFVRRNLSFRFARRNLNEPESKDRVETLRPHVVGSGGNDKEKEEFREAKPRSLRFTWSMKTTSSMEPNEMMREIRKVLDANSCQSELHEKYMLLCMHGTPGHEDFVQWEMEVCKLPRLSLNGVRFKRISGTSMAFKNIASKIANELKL
Sequence of Tyrosine-protein kinase Srms (Homo sapiens) (Q9H3Y6 whole entry): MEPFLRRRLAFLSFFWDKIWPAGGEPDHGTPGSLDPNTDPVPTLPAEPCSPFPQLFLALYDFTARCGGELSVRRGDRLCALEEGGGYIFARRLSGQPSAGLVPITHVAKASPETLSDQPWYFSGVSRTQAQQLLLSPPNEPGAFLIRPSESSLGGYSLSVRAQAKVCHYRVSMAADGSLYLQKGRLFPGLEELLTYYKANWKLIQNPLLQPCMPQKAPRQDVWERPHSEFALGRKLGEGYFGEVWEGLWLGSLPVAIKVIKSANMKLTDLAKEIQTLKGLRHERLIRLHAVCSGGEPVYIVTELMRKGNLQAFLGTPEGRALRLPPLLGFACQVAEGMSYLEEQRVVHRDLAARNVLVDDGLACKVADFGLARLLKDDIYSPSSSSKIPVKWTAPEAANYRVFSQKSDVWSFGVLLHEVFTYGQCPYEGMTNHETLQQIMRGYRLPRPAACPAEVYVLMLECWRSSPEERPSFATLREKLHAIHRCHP
Sequence of Bone morphogenetic protein receptor type-1B (Homo sapiens) (O00238 whole entry): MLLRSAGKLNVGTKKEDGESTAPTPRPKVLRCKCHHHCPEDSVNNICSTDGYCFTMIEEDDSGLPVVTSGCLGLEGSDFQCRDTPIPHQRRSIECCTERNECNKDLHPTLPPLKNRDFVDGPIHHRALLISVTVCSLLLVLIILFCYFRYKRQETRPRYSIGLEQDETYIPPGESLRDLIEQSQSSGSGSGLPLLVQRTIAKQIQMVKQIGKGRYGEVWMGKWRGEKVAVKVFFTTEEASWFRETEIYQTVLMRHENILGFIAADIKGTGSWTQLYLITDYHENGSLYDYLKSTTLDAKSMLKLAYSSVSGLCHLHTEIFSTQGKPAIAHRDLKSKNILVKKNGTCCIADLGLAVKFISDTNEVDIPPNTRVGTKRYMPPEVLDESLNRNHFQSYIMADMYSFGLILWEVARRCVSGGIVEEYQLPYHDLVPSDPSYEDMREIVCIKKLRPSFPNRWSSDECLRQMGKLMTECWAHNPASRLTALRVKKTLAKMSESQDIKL
Sequence of [Pyruvate dehydrogenase (acetyl-transferring)] kinase isozyme 4, mitochondrial (Homo sapiens) (Q16654 whole entry, looked up): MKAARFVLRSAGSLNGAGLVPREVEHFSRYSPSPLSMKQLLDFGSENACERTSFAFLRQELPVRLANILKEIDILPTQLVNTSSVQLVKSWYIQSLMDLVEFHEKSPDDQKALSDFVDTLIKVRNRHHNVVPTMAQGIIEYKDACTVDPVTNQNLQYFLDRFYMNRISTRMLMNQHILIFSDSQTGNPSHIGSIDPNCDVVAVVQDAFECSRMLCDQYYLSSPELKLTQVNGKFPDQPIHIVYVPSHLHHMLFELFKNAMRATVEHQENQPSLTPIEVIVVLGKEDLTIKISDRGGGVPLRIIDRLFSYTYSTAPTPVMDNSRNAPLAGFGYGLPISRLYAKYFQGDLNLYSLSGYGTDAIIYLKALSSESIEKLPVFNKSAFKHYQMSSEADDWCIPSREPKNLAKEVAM
Sequence of Serine/threonine-protein kinase Nek7 (Homo sapiens) (Q8TDX7 whole entry, looked up): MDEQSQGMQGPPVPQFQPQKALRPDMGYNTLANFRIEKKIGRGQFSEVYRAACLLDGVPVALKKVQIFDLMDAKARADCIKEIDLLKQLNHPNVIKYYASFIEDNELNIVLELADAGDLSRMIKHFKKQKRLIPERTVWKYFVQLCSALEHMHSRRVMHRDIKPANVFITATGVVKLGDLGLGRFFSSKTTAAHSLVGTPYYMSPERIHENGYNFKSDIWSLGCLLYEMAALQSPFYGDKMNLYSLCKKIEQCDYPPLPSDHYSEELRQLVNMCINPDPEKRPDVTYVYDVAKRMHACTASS

SMILES: Cc1cc2c(-c3ccc(NC(=O)[C@H](N)CC(C)(C)C)cc3C)ccnc2[nH]1
- activity [1]: 72%
- activity [2]: 97%
- activity [3]: 92%
- activity [4]: 119%
- activity [5]: 96%
- activity [6]: 100%
- activity [7]: 88%
- activity [8]: 115%
- activity [9]: 99%
- activity [10]: 106%
- activity [11]: 118%
- IC50 [12]: > 10 µM (not active)
- IC50 [13]: 5.5 µM (not active)
- activity [14]: 96%
- activity [15]: 96%
- activity [16]: 88%
- activity [17]: 92%
- activity [18]: 101%
- activity [19]: 102%
- activity [20]: 112%
- activity [21]: 88%
- activity [22]: 97%
- activity [23]: 90%
- activity [24]: 94%
- activity [25]: 83%
- activity [26]: 95%
- activity [27]: 122%
- activity [28]: 84%
- activity [29]: 86%
- activity [30]: 106%
- activity [31]: 72%
- activity [32]: 92%
- activity [33]: 90%
- activity [34]: 100%
- activity [35]: 82%
- activity [36]: 74%
- activity [37]: 96%
- activity [38]: 118%
